One series deals with MEK. Kind of series: Cellular Assay for Measuring MEK Inhibition (inhibition of ERK phosphorylation in C26 cells, Western blot). It is filed as cell-based, murine. The conditions noted are these: inhibition of ERK phosphorylation in murine colon 26 (C26) carcinoma cells; determined graphically from dose response curve. In short, it runs like this: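 Exponentially growing murine colon 26 (C26) carcinoma cells treated with varying compound concentrations at 37° C, then lysed. Western blot with antibody to dually phosphorylated ERK1/ERK2; blots stripped and re-probed for total ERK1/ERK2.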

The subject of series [1] is carrageenan thermal hyperalgesia response. Briefly: Thermal hyperalgesia from intraplantar carrageenan in rats (Paw Withdrawal Latency). In kind it is in vivo. The conditions noted are these: rat; for % Inhibition (1 hr): DOSE (PO) 10, 1 hour after drug administration; for % Inhibition (2 hr): DOSE (PO) 10, 2 hours after drug administration; for % Inhibition (3 hr): DOSE (PO) 10, 3 hours after drug administration. As for the experimental part:
The analgesic activity of the compounds of the present invention was assessed by a test with rats. […] The rats were placed on a glass plate with illumination from a halogen lamp placed directly under the injected paw. The time (in seconds) from beginning illumination until the hindlimb was withdrawn from the glass was measured and scored as Paw Withdrawal Latency (PWL). Drug substances were given by oral gavage injection 21⁄2 hours after carrageenan injection to the footpad. PWL was measured prior to carrageenan injection, just prior to drug injection, and 1, 2 (and sometimes 3) hours after drug injection. Carrageenan (a polysaccharide extracted from seaweed) causes a sterile inflammation when injected under the skin. Injection into the rat footpad causes little or no spontaneous pain-related behavior but induces hyperalgesia (pain-related behavioral responses of greater intensity than expected) to peripheral thermal or mechanical stimuli. This hyperalgesia is maximal 2 to 3 hours after injection. Treatment of rats with various analgesic drugs reduces hyperalgesia measured in this way and is a conventional test for detection of analgesic activity in rats. […] Inhibition of the carrageenan thermal hyperalgesia response was determined by the difference between reduced PWL prior to drug and subsequent to drug treatment, and was expressed as percent inhibition of the response. […] Inhibition indicates and analgesic effect.
For orientation: Carrageenan injected into the paw causes an acute inflammation.

SMILES strings stand for the structures.

What is called IC50 is the concentration that gives 50% inhibition. For orientation: melting point means the temperature, or range, at which the solid turns liquid. Turning to `O=C(NOCC(O)CO)c1cc(Cl)c(F)c(F)c1Nc1ccc(I)cc1Cl` (centres unmarked) [Example 34], the melting point fell in the range of 152 to 154 °C. Moreover, half-maximal inhibition in the series on MEK (IC50) required 1 nM. In series [1], the “% Inhibition (1 hr)” value is recorded as 39.6% and the “% Inhibition (2 hr)” value turned out to be 61.5%.

Consider `O=C(NOCC(O)CO)c1cc(Cl)c(F)c(F)c1Nc1ccc(I)cc1F` (centres unmarked) [Example 41, 5-Chloro-N-(2,3-dihydroxy-propoxy)-3,4-difluoro-2-(2-fluoro-4-iodo-phenylamino)-benzamide], for which the melting point was 152 to 155 °C. 0.73 nM corresponded to half-maximal inhibition in the series on MEK (IC50). Further, in series [1], the “% Inhibition (1 hr)” value stood at 26.7% and the “% Inhibition (2 hr)” value amounted to 61.0%.

On to `O=C(NOC[C@@H](O)CO)c1cc(Cl)c(F)c(F)c1Nc1ccc(I)cc1Cl` [Example 52, 5-Chloro-2-(2-chloro-4-iodo-phenylamino)-N-[(S)-2,3-dihydroxy-propoxy]-3,4-difluoro-benzamide], for which the melting point lay in the range of 153 to 154 °C. Also, the concentration for half-maximal inhibition (IC50) in the series with MEK stood at 7.8 nM.

For the compound `O=C(NOC[C@@H](O)CO)c1cc(Cl)c(F)c(F)c1Nc1ccc(I)cc1F` [Example 54], the melting point lay in the range of 157 to 158 °C. In the series with MEK, this compound registered a 50% inhibitory concentration (IC50) of 1.2 nM. In series [1], the “% Inhibition (1 hr)” value is 49%, the “% Inhibition (2 hr)” value was found to be 52.9% and the “% Inhibition (3 hr)” value was 29.6%.

`O=C(NOC[C@H](O)CO)c1ccc(F)c(F)c1Nc1ccc(Br)cc1F` [Example 55, 2-(4-Bromo-2-fluoro-phenylamino)-N-((R)-2,3-dihydroxy-propoxy)-3,4-difluoro-benzamide] displayed a melting point of 52 °C. In the series on MEK, this compound returned a concentration for half-maximal inhibition (IC50) of 4.5 nM. In addition, in series [1], the “% Inhibition (1 hr)” value is 36.8%, the “% Inhibition (2 hr)” value came to 60% and the “% Inhibition (3 hr)” value is on record as 22%.

The compound `C=COCCONC(=O)c1ccc(F)cc1Nc1ccc(I)cc1F` [Example 58, 4-Fluoro-2-(2-fluoro-4-iodo-phenylamino)-N-(2-vinyloxy-ethoxy)-benzamide] returned a melting point of 103.5 to 104 °C. Besides, half-maximal inhibition with MEK (IC50) required 60 nM.

`C=COCCONC(=O)c1cc(Br)c(F)c(F)c1Nc1ccc(I)cc1F` [Example 61, 5-Bromo-3,4-difluoro-2-(2-fluoro-4-iodo-phenylamino)-N-(2-vinyloxy-ethoxy)-benzamide] had a melting point of 128 to 130 °C. In the series with MEK, this compound had a half-maximal inhibitory concentration (IC50) of 150 nM.

As to `CC(C)(CO)ONC(=O)c1cc(Br)c(F)c(F)c1Nc1ccc(I)cc1Cl` [Example 62, 5-Bromo-2-(2-chloro-4-iodo-phenylamino)-3,4-difluoro-N-(2-hydroxy-1,1-dimethyl-ethoxy)-benzamide], the melting point fell in the range of 179 to 181 °C. Moreover, the IC50 in the series on MEK was 18 nM.

`Cc1cc(I)ccc1Nc1c(C(=O)NOC(C)(C)CO)ccc(F)c1F` [Example 63, 3,4-Difluoro-N-(2-hydroxy-1,1-dimethyl-ethoxy)-2-(4-iodo-2-methyl-phenylamino)-benzamide] came in with a melting point of 175 to 176 °C. Further, in the series with MEK, 47 nM corresponded to half-maximal inhibition (IC50).

In turn, `CC(C)(O)CONC(=O)c1ccc(F)c(F)c1Nc1ccc(I)cc1Cl` [Example 64, 2-(2-Chloro-4-iodo-phenylamino)-3,4-difluoro-N-(2-hydroxy-2-methyl-propoxy)-benzamide] displayed a melting point of 140 to 153 °C. Besides, the half-maximal inhibitory concentration (IC50) with MEK stood at 13 nM.

As to `CC(C)(CO)ONC(=O)c1ccc(F)c(F)c1Nc1ccc(I)cc1F` [Example 65, 3,4-Difluoro-2-(2-fluoro-4-iodo-phenylamino)-N-(2-hydroxy-1,1-dimethyl-ethoxy)-benzamide], the melting point was 182 to 183 °C. Also, the IC50 in the series with MEK was found to be 14 nM.

`CC(C)(CO)ONC(=O)c1cc(Cl)c(F)c(F)c1Nc1ccc(I)cc1F` [Example 66, 5-Chloro-3,4-difluoro-2-(2-fluoro-4-iodo-phenylamino)-N-(2-hydroxy-1,1-dimethyl-ethoxy)-benzamide] registered a melting point of 178 to 180 °C. In the series on MEK, this compound had an IC50 of 2 nM.

As to `CC(C)(O)CONC(=O)c1ccc(F)c(F)c1Nc1ccc(I)cc1F` [Example 67, 3,4-Difluoro-2-(2-fluoro-4-iodo-phenylamino)-N-(2-hydroxy-2-methyl-propoxy)-benzamide], the melting point lay in the range of 156.7 to 156.9 °C. Further, in the series with MEK, the midpoint of inhibition, the IC50, lay at 6 nM.

`COCC(O)CONC(=O)c1ccc(F)c(F)c1Nc1ccc(I)cc1C` (centres unmarked) [Example 68]: the melting point lay within 136.2 to 136.5 °C. The compound further had an IC50 with MEK of 24 nM.

In the case of `COCC(O)CONC(=O)c1cc(Br)c(F)c(F)c1Nc1ccc(I)cc1Cl` (centres unmarked) [Example 69, 5-Bromo-2-(2-chloro-4-iodo-phenylamino)-3,4-difluoro-N-(2-hydroxy-3-methoxy-propoxy)-benzamide], the melting point lay in the range of 139.5 to 140.1 °C. Besides, in the series on MEK, the IC50 is 60 nM.

`Cc1cc(I)ccc1Nc1c(C(=O)NOCC2(CO)CC2)ccc(F)c1F` [Example 70, 3,4-Difluoro-N-(1-hydroxymethyl-cyclopropylmethoxy)-2-(4-iodo-2-methyl-phenylamino)-benzamide]: the melting point fell in the range of 165.4 to 165.6 °C. In the series with MEK, this compound displayed an IC50 of 200 nM.

For `O=C(NOCC1(CO)CC1)c1cc(Br)c(F)c(F)c1Nc1ccc(I)cc1Cl` [Example 71, 5-Bromo-2-(2-chloro-4-iodo-phenylamino)-3,4-difluoro-N-(1-hydroxymethyl-cyclopropylmethoxy)-benzamide], the melting point was 152.6 to 153.9 °C. In the series on MEK, this compound gave a half-inhibitory concentration (IC50) of 120 nM.

In the case of `Cc1cc(I)ccc1Nc1c(C(=O)NOCC(O)C(F)(F)F)ccc(F)c1F` (centres unmarked) [Example 72, 3,4-Difluoro-2-(4-iodo-2-methyl-phenylamino)-N-(3,3,3-trifluoro-2-hydroxy-propoxy)-benzamide], the melting point was 175.2 to 175.5 °C. Further, in the series with MEK, inhibition was half-maximal at 19 nM (IC50).

Take `O=C(NOCC(O)C(F)(F)F)c1cc(Br)c(F)c(F)c1Nc1ccc(I)cc1Cl` (centres unmarked) [Example 73, 5-Bromo-2-(2-chloro-4-iodo-phenylamino)-3,4-difluoro-N-(3,3,3-trifluoro-2-hydroxy-propoxy)-benzamide]: the melting point lay in the range of 186.9 to 187.3 °C. The same compound yielded an IC50 in the series with MEK of 80 nM.

Compound `CC(C)(O)C(O)CONC(=O)c1ccc(F)c(F)c1Nc1ccc(I)cc1F` (centres unmarked) [Example 76, N-(2,3-Dihydroxy-3-methyl-butoxy)-3,4-difluoro-2-(2-fluoro-4-iodo-phenylamino)-benzamide] showed a melting point of 180 to 183 °C. The compound further had a 50% inhibitory concentration (IC50) in the series on MEK of 6 nM.

Regarding `CNCCONC(=O)c1ccc(F)c(F)c1Nc1ccc(I)cc1C` [Example 78, 3,4-Difluoro-2-(4-iodo-2-methyl-phenylamino)-N-(2-methylamino-ethoxy)-benzamide], the melting point was 183 to 185 °C (dec.). The compound further had an IC50 in the series on MEK of 230 nM.

As for `O=C(c1ccc(F)c(F)c1Nc1ccc(I)cc1F)N1CC(O)CO1` (centres unmarked) [Example 83, [3,4-Difluoro-2-(2-fluoro-4-iodo-phenylamino)-phenyl]-(4-hydroxy-isoxazolidin-2-yl)-methanone], the melting point was in the range of 122 to 124 °C. The concentration for half-maximal inhibition (IC50) with MEK stood at 41 nM.

The compound `O=C(NOCC(O)CO)c1ccc(F)c(F)c1Nc1ccccc1F` (centres unmarked) [Example 85, N-(2,3-Dihydroxy-propoxy)-3,4-difluoro-2-(2-fluoro-phenylamino)-benzamide] yielded a melting point of 113 to 115 °C. The same compound had an IC50 with MEK of 54 nM.
